From publication PMC4759042, “The D‐amino acid transport by the invertebrate SLC6 transporters KAAT1 and CAATCH1 from Manduca sexta” (Physiological Reports, 2016)

What was measured:
KAAT1 (msKAAT1) = biological target: T1, KAAT1 (msKAAT1) (Manduca sexta, UniProt O76188); assay: two-electrode voltage clamp in oocytes, transport current; format: cell-based; details: NaCl 98 mmol/L, pH 7.6, -60 mV; main transport site, up to 300 μmol/L
T1 construct: full-length transporter from cRNA in Xenopus laevis oocytes
T1 sequence (O76188 1-634): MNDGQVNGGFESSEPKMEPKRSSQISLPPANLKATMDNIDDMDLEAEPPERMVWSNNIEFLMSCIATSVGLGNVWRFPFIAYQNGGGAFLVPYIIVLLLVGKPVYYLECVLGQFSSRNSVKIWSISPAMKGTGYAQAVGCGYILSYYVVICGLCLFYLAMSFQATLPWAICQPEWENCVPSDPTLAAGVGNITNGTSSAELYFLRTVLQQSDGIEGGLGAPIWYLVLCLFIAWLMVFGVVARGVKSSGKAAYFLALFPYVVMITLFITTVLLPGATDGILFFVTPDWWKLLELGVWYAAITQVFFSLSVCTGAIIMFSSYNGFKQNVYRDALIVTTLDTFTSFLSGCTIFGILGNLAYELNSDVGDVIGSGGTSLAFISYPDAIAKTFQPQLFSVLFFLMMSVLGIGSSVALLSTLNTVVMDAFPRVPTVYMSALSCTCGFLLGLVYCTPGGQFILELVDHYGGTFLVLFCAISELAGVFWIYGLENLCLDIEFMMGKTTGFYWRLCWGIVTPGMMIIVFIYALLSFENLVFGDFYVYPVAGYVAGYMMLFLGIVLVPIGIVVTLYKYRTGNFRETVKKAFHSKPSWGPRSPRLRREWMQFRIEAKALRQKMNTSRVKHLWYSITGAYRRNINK

CAATCH1 (msCAATCH1) [1] = biological target: T2, CAATCH1 (msCAATCH1) (Manduca sexta, UniProt Q9U5A9); assay: as above; format: cell-based; details: NaCl 98 mmol/L, pH 7.6, -60 mV
T2 construct: full-length transporter from cRNA in Xenopus laevis oocytes
T2 sequence (Q9U5A9 1-633): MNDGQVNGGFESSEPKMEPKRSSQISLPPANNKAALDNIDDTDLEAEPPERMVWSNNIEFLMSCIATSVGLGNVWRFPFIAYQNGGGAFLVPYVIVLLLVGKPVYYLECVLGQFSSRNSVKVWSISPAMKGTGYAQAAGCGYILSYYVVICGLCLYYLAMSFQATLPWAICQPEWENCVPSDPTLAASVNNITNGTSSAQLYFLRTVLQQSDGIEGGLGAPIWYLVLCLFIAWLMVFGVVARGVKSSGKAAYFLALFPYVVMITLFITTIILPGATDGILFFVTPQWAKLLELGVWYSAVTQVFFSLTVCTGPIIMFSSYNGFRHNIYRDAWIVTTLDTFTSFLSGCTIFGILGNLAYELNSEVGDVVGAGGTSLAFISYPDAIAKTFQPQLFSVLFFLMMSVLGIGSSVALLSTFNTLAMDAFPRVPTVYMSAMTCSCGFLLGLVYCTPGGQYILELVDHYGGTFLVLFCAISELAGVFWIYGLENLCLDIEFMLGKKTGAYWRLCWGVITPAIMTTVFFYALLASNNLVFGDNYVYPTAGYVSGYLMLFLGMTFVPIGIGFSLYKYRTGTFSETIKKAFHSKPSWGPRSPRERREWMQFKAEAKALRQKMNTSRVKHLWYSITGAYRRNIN

CAATCH1 (msCAATCH1) [2] = biological target: T2, CAATCH1 (msCAATCH1); assay: two-electrode voltage clamp in oocytes, block of leak current; format: cell-based; details: NaCl 98 mmol/L, pH 7.6, -60 mV; blocker, not transported
[3] = substrate: CC(C)C[C@H](N)C(=O)O; assay: two-electrode voltage clamp in oocytes, transport current; format: cell-based, Manduca sexta; details: NaCl 98 mmol/L, pH 7.6, -60 mV, 20-25 °C

CC(C)C[C@@H](N)C(=O)O [D‐leucine]
two-electrode voltage clamp in oocytes, transport current (KAAT1 (msKAAT1)): increasing concentrations of D‐leucine to the oocyte caused progressively larger transport currents | two-electrode voltage clamp in oocytes, transport current (CAATCH1 (msCAATCH1) [1]; 30-1000 μmol/L): The amplitude of the response to D‐leucine increases with the substrate concentration

N[C@H](CO)C(=O)O [D‐serine]
two-electrode voltage clamp in oocytes, transport current (CAATCH1 (msCAATCH1) [1]): the D‐enantiomer gives rise to a large current

CC(C)C[C@H](N)C(=O)O [L‐leucine]
two-electrode voltage clamp in oocytes, block of leak current (CAATCH1 (msCAATCH1) [2]): L‐leucine produces an apparent outward current, actually representing a block of the leak current

N[C@@H](CO)C(=O)O [L‐serine]
two-electrode voltage clamp in oocytes, block of leak current (CAATCH1 (msCAATCH1) [2]): has a blocking effect similar to that of L‐leucine

B1: KAAT1 (msKAAT1) (Manduca sexta) (protein)
chain: MNDGQVNGGFESSEPKMEPKRSSQISLPPANLKATMDNIDDMDLEAEPPERMVWSNNIEFLMSCIATSVGLGNVWRFPFIAYQNGGGAFLVPYIIVLLLVGKPVYYLECVLGQFSSRNSVKIWSISPAMKGTGYAQAVGCGYILSYYVVICGLCLFYLAMSFQATLPWAICQPEWENCVPSDPTLAAGVGNITNGTSSAELYFLRTVLQQSDGIEGGLGAPIWYLVLCLFIAWLMVFGVVARGVKSSGKAAYFLALFPYVVMITLFITTVLLPGATDGILFFVTPDWWKLLELGVWYAAITQVFFSLSVCTGAIIMFSSYNGFKQNVYRDALIVTTLDTFTSFLSGCTIFGILGNLAYELNSDVGDVIGSGGTSLAFISYPDAIAKTFQPQLFSVLFFLMMSVLGIGSSVALLSTLNTVVMDAFPRVPTVYMSALSCTCGFLLGLVYCTPGGQFILELVDHYGGTFLVLFCAISELAGVFWIYGLENLCLDIEFMMGKTTGFYWRLCWGIVTPGMMIIVFIYALLSFENLVFGDFYVYPVAGYVAGYMMLFLGIVLVPIGIVVTLYKYRTGNFRETVKKAFHSKPSWGPRSPRLRREWMQFRIEAKALRQKMNTSRVKHLWYSITGAYRRNINK
notes: full-length transporter from cRNA in Xenopus laevis oocytes
K0.5 [3]: 10 µmol/L
